Experimental data published in patent US20080031955A1, “Product Comprising a Beta-Lactam Antibiotic” (priority 2004, published 2008).

Legend:
Format in all cases: physicochemical
[1] = Water content (Karl Fisher) of the dried product; settings: after drying
Procedure: The wet cake was fluidised with air at ambient temperature during 15 to 30 minutes, after which it was fluidised with warm air (30-40° C.) during 45 to 75 minutes (air flow 1800 m^3/hr), until the water content was 5.2 wt. % (Karl Fisher).
(product temperature 40° C.). The final pressure was 20 mbar. […] The water content was 5.2 wt. % (Karl Fisher).

[2] = Color C400 measured at 400 nm (Ph. Eur.); settings: color measured at a wavelength of 400 nm
Source text: In a preferred embodiment, the product according to the invention has a C400≦0.20, wherein C400 is the color measured at a wavelength of 400 nm (Ph.Eur.). Preferably, the product has a C400≦0.15, preferably a C400≦0.10.

[3] = Acetone content of the dried product by gas chromatography
Procedure: The acetone content or concentration of organic solvent may be determined in any suitable manner, e.g. by gas chromatography.
The acetone content of the dried product was analysed using a Hewlett-Packard Gas Chromatograph, model 5890. As a sample solution was used a solution obtained by dissolving 0.500 g of product in 10.0 ml of water (with the aid of some drops of NaOH 1 N). As a standard (reference) solution was used a solution obtained by dissolving 0.5 g of acetone standard in 50.0 ml of water, from which 1.0 ml was taken and diluted with 50.0 ml water.

Structure (SMILES) | water content (Karl Fisher) [1] [wt. %] | C400 (Ph. Eur.) [2] | Acetone content ([3]; dried cephalexin product) [mg/kg] | Acetone content ([3]; dried product, fluid bed dryer)
CC1=C(C(=O)O)N2C(=O)[C@@H](NC(=O)[C@H](N)c3ccccc3)[C@H]2SC1 [Comparative experiment A, cephalexin] | 5.2 | 0.025 | 500 | 500 mg of acetone per kg of cephalexin
CC1=C(C(=O)O)N2C(=O)[C@@H](NC(=O)[C@H](N)c3ccccc3)[C@H]2SC1.O [Example I, cephalexin] | 5.2 | 0.026 | 10 | –
